From the NIST ThermoML archive (doi:10.1016/j.jct.2018.05.012)
± gives the expanded uncertainty stated by the source.

Assay: xn = mol fraction of the nth substance listed
Settings: 100 kPa, Liquid; for speed of sound: Frequency=3 MHz, Single path-length method; for mass density: Vibrating tube method

Structure (SMILES): C1COCO1 [1,3-dioxolane] + C1COCCO1
- speed of sound (293.15 K, x1 = 0.1184): 1367 ± 1.4 m/s
- speed of sound (293.15 K, x1 = 0.1694): 1366.7 ± 1.4 m/s
- speed of sound (293.15 K, x1 = 0.2145): 1366.4 ± 1.4 m/s
- speed of sound (293.15 K, x1 = 0.2632): 1366.1 ± 1.4 m/s
- speed of sound (293.15 K, x1 = 0.3154): 1365.8 ± 1.4 m/s
- speed of sound (293.15 K, x1 = 0.3689): 1365.5 ± 1.4 m/s
- speed of sound (293.15 K, x1 = 0.4184): 1365.2 ± 1.4 m/s
- speed of sound (293.15 K, x1 = 0.4697): 1364.9 ± 1.4 m/s
- speed of sound (293.15 K, x1 = 0.5124): 1364.6 ± 1.4 m/s
- speed of sound (293.15 K, x1 = 0.5674): 1364.3 ± 1.4 m/s
- speed of sound (293.15 K, x1 = 0.6282): 1363.9 ± 1.4 m/s
- speed of sound (293.15 K, x1 = 0.6734): 1363.6 ± 1.4 m/s
- speed of sound (293.15 K, x1 = 0.7231): 1363.3 ± 1.4 m/s
- speed of sound (293.15 K, x1 = 0.7626): 1363 ± 1.4 m/s
- speed of sound (293.15 K, x1 = 0.7992): 1362.7 ± 1.4 m/s
- speed of sound (293.15 K, x1 = 0.8486): 1362.4 ± 1.4 m/s
- speed of sound (293.15 K, x1 = 0.8815): 1362.1 ± 1.4 m/s
- speed of sound (293.15 K, x1 = 0.9102): 1361.9 ± 1.4 m/s
- mass density (293.15 K, x1 = 0.1184): 1036.5 ± 1 kg/m3
- mass density (293.15 K, x1 = 0.1694): 1037.8 ± 1 kg/m3
- mass density (293.15 K, x1 = 0.2145): 1039 ± 1 kg/m3
- mass density (293.15 K, x1 = 0.2632): 1040.4 ± 1 kg/m3
- mass density (293.15 K, x1 = 0.3154): 1041.8 ± 1 kg/m3
- mass density (293.15 K, x1 = 0.3689): 1043.3 ± 1 kg/m3
- mass density (293.15 K, x1 = 0.4184): 1044.8 ± 1 kg/m3
- mass density (293.15 K, x1 = 0.4697): 1046.3 ± 1 kg/m3
- mass density (293.15 K, x1 = 0.5124): 1047.6 ± 1 kg/m3
- mass density (293.15 K, x1 = 0.5674): 1049.4 ± 1 kg/m3
- mass density (293.15 K, x1 = 0.6282): 1051.4 ± 1 kg/m3
- mass density (293.15 K, x1 = 0.6734): 1052.9 ± 1 kg/m3
- mass density (293.15 K, x1 = 0.7231): 1054.6 ± 1 kg/m3
- mass density (293.15 K, x1 = 0.7626): 1055.9 ± 1 kg/m3
- mass density (293.15 K, x1 = 0.7992): 1057.2 ± 1 kg/m3
- mass density (293.15 K, x1 = 0.8486): 1059 ± 1 kg/m3
- mass density (293.15 K, x1 = 0.8815): 1060.2 ± 1 kg/m3
- mass density (293.15 K, x1 = 0.9102): 1061.3 ± 1 kg/m3
- speed of sound (298.15 K, x1 = 0.1184): 1345.1 ± 1.4 m/s
- speed of sound (298.15 K, x1 = 0.1694): 1344.8 ± 1.4 m/s
- speed of sound (298.15 K, x1 = 0.2145): 1344.5 ± 1.4 m/s
- speed of sound (298.15 K, x1 = 0.2632): 1344.1 ± 1.4 m/s
- speed of sound (298.15 K, x1 = 0.3154): 1343.8 ± 1.4 m/s
- speed of sound (298.15 K, x1 = 0.3689): 1343.5 ± 1.4 m/s
- speed of sound (298.15 K, x1 = 0.4184): 1343.1 ± 1.4 m/s
- speed of sound (298.15 K, x1 = 0.4697): 1342.8 ± 1.4 m/s
- speed of sound (298.15 K, x1 = 0.5124): 1342.5 ± 1.4 m/s
- speed of sound (298.15 K, x1 = 0.5674): 1342.1 ± 1.4 m/s
- speed of sound (298.15 K, x1 = 0.6282): 1341.7 ± 1.4 m/s
- speed of sound (298.15 K, x1 = 0.6734): 1341.4 ± 1.4 m/s
- speed of sound (298.15 K, x1 = 0.7231): 1341 ± 1.4 m/s
- speed of sound (298.15 K, x1 = 0.7626): 1340.7 ± 1.4 m/s
- speed of sound (298.15 K, x1 = 0.7992): 1340.4 ± 1.4 m/s
- speed of sound (298.15 K, x1 = 0.8486): 1340 ± 1.4 m/s
- speed of sound (298.15 K, x1 = 0.8815): 1339.8 ± 1.4 m/s
- speed of sound (298.15 K, x1 = 0.9102): 1339.5 ± 1.4 m/s
- mass density (298.15 K, x1 = 0.1184): 1030.8 ± 1 kg/m3
- mass density (298.15 K, x1 = 0.1694): 1032.1 ± 1 kg/m3
- mass density (298.15 K, x1 = 0.2145): 1033.3 ± 1 kg/m3
- mass density (298.15 K, x1 = 0.2632): 1034.6 ± 1 kg/m3
- mass density (298.15 K, x1 = 0.3154): 1036.1 ± 1 kg/m3
- mass density (298.15 K, x1 = 0.3689): 1037.6 ± 1 kg/m3
- mass density (298.15 K, x1 = 0.4184): 1039 ± 1 kg/m3
- mass density (298.15 K, x1 = 0.4697): 1040.5 ± 1 kg/m3
- mass density (298.15 K, x1 = 0.5124): 1041.8 ± 1 kg/m3
- mass density (298.15 K, x1 = 0.5674): 1043.6 ± 1 kg/m3
- mass density (298.15 K, x1 = 0.6282): 1045.5 ± 1 kg/m3
- mass density (298.15 K, x1 = 0.6734): 1047 ± 1 kg/m3
- mass density (298.15 K, x1 = 0.7231): 1048.7 ± 1 kg/m3
- mass density (298.15 K, x1 = 0.7626): 1050.1 ± 1 kg/m3
- mass density (298.15 K, x1 = 0.7992): 1051.4 ± 1 kg/m3
- mass density (298.15 K, x1 = 0.8486): 1053.1 ± 1 kg/m3
- mass density (298.15 K, x1 = 0.8815): 1054.3 ± 1 kg/m3
- mass density (298.15 K, x1 = 0.9102): 1055.4 ± 1 kg/m3
- speed of sound (303.15 K, x1 = 0.1184): 1323.5 ± 1.4 m/s
- speed of sound (303.15 K, x1 = 0.1694): 1323.1 ± 1.4 m/s
- speed of sound (303.15 K, x1 = 0.2145): 1322.8 ± 1.4 m/s
- speed of sound (303.15 K, x1 = 0.2632): 1322.4 ± 1.4 m/s
- speed of sound (303.15 K, x1 = 0.3154): 1322.1 ± 1.4 m/s
- speed of sound (303.15 K, x1 = 0.3689): 1321.7 ± 1.4 m/s
- speed of sound (303.15 K, x1 = 0.4184): 1321.3 ± 1.4 m/s
- speed of sound (303.15 K, x1 = 0.4697): 1321 ± 1.4 m/s
- speed of sound (303.15 K, x1 = 0.5124): 1320.7 ± 1.4 m/s
- speed of sound (303.15 K, x1 = 0.5674): 1320.3 ± 1.4 m/s
- speed of sound (303.15 K, x1 = 0.6282): 1319.8 ± 1.4 m/s
- speed of sound (303.15 K, x1 = 0.6734): 1319.5 ± 1.4 m/s
- speed of sound (303.15 K, x1 = 0.7231): 1319.1 ± 1.4 m/s
- speed of sound (303.15 K, x1 = 0.7626): 1318.8 ± 1.4 m/s
- speed of sound (303.15 K, x1 = 0.7992): 1318.5 ± 1.4 m/s
- speed of sound (303.15 K, x1 = 0.8486): 1318.1 ± 1.4 m/s
- speed of sound (303.15 K, x1 = 0.8815): 1317.8 ± 1.4 m/s
- speed of sound (303.15 K, x1 = 0.9102): 1317.5 ± 1.4 m/s
- mass density (303.15 K, x1 = 0.1184): 1025.1 ± 1 kg/m3
- mass density (303.15 K, x1 = 0.1694): 1026.4 ± 1 kg/m3
- mass density (303.15 K, x1 = 0.2145): 1027.5 ± 1 kg/m3
- mass density (303.15 K, x1 = 0.2632): 1028.8 ± 1 kg/m3
- mass density (303.15 K, x1 = 0.3154): 1030.2 ± 1 kg/m3
- mass density (303.15 K, x1 = 0.3689): 1031.7 ± 1 kg/m3
- mass density (303.15 K, x1 = 0.4184): 1033.1 ± 1 kg/m3
- mass density (303.15 K, x1 = 0.4697): 1034.6 ± 1 kg/m3
- mass density (303.15 K, x1 = 0.5124): 1035.8 ± 1 kg/m3
- mass density (303.15 K, x1 = 0.5674): 1037.5 ± 1 kg/m3
- mass density (303.15 K, x1 = 0.6282): 1039.5 ± 1 kg/m3
- mass density (303.15 K, x1 = 0.6734): 1040.9 ± 1 kg/m3
- mass density (303.15 K, x1 = 0.7231): 1042.6 ± 1 kg/m3
- mass density (303.15 K, x1 = 0.7626): 1043.9 ± 1 kg/m3
- mass density (303.15 K, x1 = 0.7992): 1045.2 ± 1 kg/m3
- mass density (303.15 K, x1 = 0.8486): 1046.9 ± 1 kg/m3
- mass density (303.15 K, x1 = 0.8815): 1048.1 ± 1 kg/m3
- mass density (303.15 K, x1 = 0.9102): 1049.1 ± 1 kg/m3
- speed of sound (308.15 K, x1 = 0.1184): 1301.6 ± 1.4 m/s
- speed of sound (308.15 K, x1 = 0.1694): 1301.2 ± 1.4 m/s
- speed of sound (308.15 K, x1 = 0.2145): 1300.8 ± 1.4 m/s
- speed of sound (308.15 K, x1 = 0.2632): 1300.5 ± 1.4 m/s
- speed of sound (308.15 K, x1 = 0.3154): 1300.1 ± 1.4 m/s
- speed of sound (308.15 K, x1 = 0.3689): 1299.7 ± 1.4 m/s
- speed of sound (308.15 K, x1 = 0.4184): 1299.4 ± 1.4 m/s
- speed of sound (308.15 K, x1 = 0.4697): 1299 ± 1.4 m/s
- speed of sound (308.15 K, x1 = 0.5124): 1298.7 ± 1.4 m/s
- speed of sound (308.15 K, x1 = 0.5674): 1298.3 ± 1.4 m/s
- speed of sound (308.15 K, x1 = 0.6282): 1297.9 ± 1.4 m/s
- speed of sound (308.15 K, x1 = 0.6734): 1297.5 ± 1.4 m/s
- speed of sound (308.15 K, x1 = 0.7231): 1297.1 ± 1.4 m/s
- speed of sound (308.15 K, x1 = 0.7626): 1296.8 ± 1.4 m/s
- speed of sound (308.15 K, x1 = 0.7992): 1296.5 ± 1.4 m/s
- speed of sound (308.15 K, x1 = 0.8486): 1296.1 ± 1.4 m/s
- speed of sound (308.15 K, x1 = 0.8815): 1295.8 ± 1.4 m/s
- speed of sound (308.15 K, x1 = 0.9102): 1295.5 ± 1.4 m/s
- mass density (308.15 K, x1 = 0.1184): 1019.3 ± 1 kg/m3
- mass density (308.15 K, x1 = 0.1694): 1020.6 ± 1 kg/m3
- mass density (308.15 K, x1 = 0.2145): 1021.7 ± 1 kg/m3
- mass density (308.15 K, x1 = 0.2632): 1022.9 ± 1 kg/m3
- mass density (308.15 K, x1 = 0.3154): 1024.3 ± 1 kg/m3
- mass density (308.15 K, x1 = 0.3689): 1025.8 ± 1 kg/m3
- mass density (308.15 K, x1 = 0.4184): 1027.2 ± 1 kg/m3
- mass density (308.15 K, x1 = 0.4697): 1028.6 ± 1 kg/m3
- mass density (308.15 K, x1 = 0.5124): 1029.9 ± 1 kg/m3
- mass density (308.15 K, x1 = 0.5674): 1031.5 ± 1 kg/m3
- mass density (308.15 K, x1 = 0.6282): 1033.4 ± 1 kg/m3
- mass density (308.15 K, x1 = 0.6734): 1034.8 ± 1 kg/m3
- mass density (308.15 K, x1 = 0.7231): 1036.5 ± 1 kg/m3
- mass density (308.15 K, x1 = 0.7626): 1037.8 ± 1 kg/m3
- mass density (308.15 K, x1 = 0.7992): 1039 ± 1 kg/m3
- mass density (308.15 K, x1 = 0.8486): 1040.7 ± 1 kg/m3
- mass density (308.15 K, x1 = 0.8815): 1041.9 ± 1 kg/m3
- mass density (308.15 K, x1 = 0.9102): 1042.9 ± 1 kg/m3
